Assay results as given in ChEMBL document CHEMBL3507680, “University of Dundee, Gates Library screen for HepG2 cell viability”.

Assay: Human HepG2 cell viability assay in 384 well format
Type: toxicity, cell-based
Parameters: dose 125 nL, time 70.5 hour; concentration not given beside the values
Settings: HepG2 cells, read-out: Inhibition

Compound	cytotoxicity at 70.5 h [%]
Cc1cnn(CC2CN(CCS(C)(=O)=O)CCO2)c1 (stereo unspecified)	-4.67
COC(=O)N1CCC(NC(=O)Cn2cc(C)c3ccccc32)CC1	-7.09
Cc1cc(CNC(=O)[C@H]2CCCCN2C(=O)OC(C)(C)C)on1	-1.11
COc1ccc(CNC(=O)CNc2cc3c(cc2Cl)OCCO3)cc1	-0.455
CSCC(C)(O)CNC(=O)c1cc(F)ccc1Br (stereo unspecified)	1.71
COCCN1CCC(NC(=O)Cn2cc(C)c3ccccc32)CC1	12.3
Cc1cc(CNC(=O)C2CCCN2C(=O)OC(C)(C)C)no1 (stereo unspecified)	-0.379
c1ccc2c(c1)OCCCC2NCc1nnc2n1CCCCC2 (stereo unspecified)	-2.04
Cc1nn(C)c(Oc2ccccc2)c1CNC1CCOc2ccccc21 (stereo unspecified)	-1.6
Cc1cc(CN(Cc2ccccc2)CC(O)c2cccs2)on1 (stereo unspecified)	8.6
OC(CN(Cc1ccccc1)Cc1ccon1)c1cccs1 (stereo unspecified)	-5.21
CN(C)c1cc(CNCc2cccc3c2OCCO3)ccn1	-4.63
CCN(CC)S(=O)(=O)N1CCCN(CC(=O)NC(C)C)CC1	6.63
c1cc(CNCc2ccnc(N3CCCC3)c2)c2c(c1)OCCCO2	-10
Cc1oncc1C(=O)NCC(c1ccccc1Cl)N1CCOCC1 (stereo unspecified)	-3.09
Cc1cnc(C(=O)NCC(c2ccc(C)o2)N2CCOCC2)cn1 (stereo unspecified)	10.4
CN1CCN(Cc2ccccc2CNC(=O)c2cc(Cl)ccc2F)CC1	-5.92
Cc1ccoc1C(=O)NCC(c1ccccc1Cl)N1CCOCC1 (stereo unspecified)	-1.62
CC(C)CN1CCN(C(=O)c2cccnc2-n2cncn2)CC1	11.2
CC(NC(=O)Cc1ccccc1F)C(=O)N1CCS(=O)(=O)CC1 (stereo unspecified)	-3.35
CC(C)(C)NC(=O)NC(=O)COc1nc(C(C)(C)C)no1	13
CN(Cc1ccc(N(C)C)cc1)C(=O)CS(=O)(=O)c1ccc(Cl)cc1	17

Compound	cytotoxicity at 70.5 h [%]
CC(C)(C)N1CCN(C(=O)c2cccnc2-n2cncn2)CC1	0.2
N#Cc1cccnc1NCCNC(=O)N1CCN2CCCCC2C1 (stereo unspecified)	13.6
Cc1ccc(CC(=O)NC(C)C(=O)N2CCS(=O)(=O)CC2)s1 (stereo unspecified)	-1.34
Cc1cnn(CC2CCCN2CC(=O)N(C)Cc2ccco2)c1 (stereo unspecified)	-4.69
Cn1cc(CCCNS(=O)(=O)N2CCCC2c2ccco2)cn1 (stereo unspecified)	-2.37
CS(=O)(=O)Cc1ccc(Cl)c(NCc2noc(C3CC3)n2)c1	0.67
O=C(NC1(c2nccs2)CCCC1)c1cc(C2CC2)[nH]n1	-2.38
O=C(NC1(c2nccs2)CCCC1)c1[nH]nc(C2CC2)c1Cl	3
Cn1ccc(NC2CCN(C3CC3)C2=O)n1 (stereo unspecified)	11.7
COCC(C)(C#N)NC(=O)COc1ccccc1Br (stereo unspecified)	-0.405
CCC(NCc1cc[nH]n1)c1nc(C(F)(F)F)cs1 (stereo unspecified)	-4.23
CCN(CC1CCCO1)S(=O)(=O)c1cc(NC(C)=O)ccc1C (stereo unspecified)	6.44
CN(CCN1CCCC1=O)S(=O)(=O)CC1CCCC1	-4.62
CCn1cc(CN(C)S(=O)(=O)N2CCCC2c2ccco2)cn1 (stereo unspecified)	-1.42
CC(C)N1CCC(Nc2ccn(CCC#N)n2)C1=O (stereo unspecified)	-2.6
Cc1[nH]ccc1C(=O)N(C)C1CC(=O)N(Cc2ccccc2)C1=O (stereo unspecified)	-2.82
O=C(CNc1cc(F)ccc1OC(F)F)NCC(F)(F)F	2.53
CN(C(=O)CN1CCCC1c1cnn(C)c1)C(C)(C)C#N (stereo unspecified)	1.19
Cc1ccc(N2CCCC(N(C)c3ncnc4c3CCC4)C2)nn1 (stereo unspecified)	2.74
CCOc1cc(C(=O)N(C)C)ccc1NC(=O)C(C)c1ccsc1 (stereo unspecified)	26
O=c1oc(-c2ccc(F)cc2)nn1CCc1ccccn1	2.48
CCN(CC)Cc1ccccc1NC(=O)N(C)Cc1ccccc1O	-6.5

Compound	cytotoxicity at 70.5 h [%]
Cn1ccnc1COc1ccc(CSc2nncn2C2CC2)cc1	-8.64
CN(C)C(=O)c1ccccc1NC(=O)N(C)Cc1ccccc1O	4.11
NC(=O)Cn1ccc(NC(=O)C2(c3cccc(Cl)c3)CC2)n1	-7.03
Cc1cc(C(=O)N2CCCC(N3CCNC3=O)C2)nn1C(C)(C)C (stereo unspecified)	-0.73
NC(=O)CCN1C(=O)CC(Cc2ccc(F)cc2)C1=O (stereo unspecified)	-11.2
N#CC(NC(=O)CS(=O)(=O)C1CCCC1)c1ccc(F)cc1F (stereo unspecified)	-10.4
O=C(CNc1ccc(F)cc1OCC(F)(F)F)NCC(F)(F)F	13.1
CC(CNC(=O)c1c[nH]nn1)Oc1cccc(Br)c1 (stereo unspecified)	-11.4
CC(CNC(=O)c1ccon1)Oc1cccc(Br)c1 (stereo unspecified)	4.03
C=C(C)CN1C(=O)CC(Cc2ccc(F)cc2)C1=O (stereo unspecified)	-3.87
CCOc1ccc(C(=O)N(C)C)cc1NC(=O)c1ccsc1	-10.6
CCCS(=O)(=O)N(C)C(=O)CCc1ccccc1	-8.46
NC(=O)Cn1ccc(NC(=O)C2(c3cccc(F)c3)CCC2)n1	19.5
Cc1cc(CNC(=O)c2cccs2)ccc1S(C)(=O)=O	-3.96
N#CC(NC(=O)CCC(=O)NC1CCCC1)c1ccc(F)cc1F (stereo unspecified)	-11.2
CC1c2cccn2CCN1S(=O)(=O)N1CCCCCC1 (stereo unspecified)	-14.2
CCCN(CC1CC1)C(=O)CN1CCCC1c1cnn(C)c1 (stereo unspecified)	-10.4
CCOc1ccc(N(C)S(=O)(=O)c2c[nH]c(C(C)C)n2)cc1	-4.89
CC(Cn1cccn1)NC(=O)N1CCC(NS(C)(=O)=O)CC1 (stereo unspecified)	-17.2
Cc1nc2n(n1)CC(NCC(=O)N(C)Cc1cccs1)CC2 (stereo unspecified)	2.31
CN(c1cccc(C#N)c1)S(=O)(=O)c1cc(C(=O)O)ccc1Cl	-12.6
Cc1cc(C(=O)Nc2ccc(OCC3CCOCC3)cc2)[nH]n1	1.95

Compound	cytotoxicity at 70.5 h [%]
Cc1cc(NC(=O)Cn2nc(C)c(C#N)c2N)ccc1Br	-7.3
COc1ccc(C)cc1NC(=O)Cn1nc(C)c(C#N)c1N	-5.55
Cc1nn(CC(=O)Nc2ccc(F)cc2)c(N)c1C#N	-0.498
O=C(Cn1cc(C2CC2)nn1)NC(c1ccc(Cl)cc1)C1CC1 (stereo unspecified)	-8.06
O=C(Cn1cc(C2CC2)nn1)NC(c1cc(F)ccc1F)C1CC1 (stereo unspecified)	-5.37
CNC(=O)C(C)(C)CNC(=O)Nc1ccc(C)cn1	-3.94
CNC(=O)C(C)(C)CNC(=O)Nc1ccncc1C	-9.08
NC(=O)c1cccc(CCNC(=O)N2CCCC2)c1	-8
COc1cc(NCc2ncc[nH]2)ccc1Br	-1.95
COCCn1cc(NC(=O)NCC(C)N2CCOCC2)cn1 (stereo unspecified)	-13.2
CC(CC#N)N(C)Cc1ccc(F)cc1F (stereo unspecified)	-6.44
C=C(C)CN(CC)Cc1nc(CC)no1	-8.43
CC(CC#N)N(C)Cc1ccc(F)cc1C#N (stereo unspecified)	11.9
Cc1cnn(CCNC(C)c2nnc(-c3ccccc3)o2)c1 (stereo unspecified)	-7.05
C=C(C)CN1CCOC(Cn2cncn2)C1 (stereo unspecified)	32
COc1ccc(NC(=O)C2CCCO2)cc1OCc1cccnc1 (stereo unspecified)	49.9
Cc1ccc2cc(C(=O)N3CCN(S(C)(=O)=O)CC3)[nH]c2c1	12.7
O=C(COc1ccccc1)N(Cc1ccncc1)C1CC1	-8.79
COc1ccccc1C(C)N1CCN(S(C)(=O)=O)CC1 (stereo unspecified)	11.4
CC(=O)NC(C)(C)c1noc(C2(C#N)CCCCC2)n1	-3.45
